Experimental data reported in ChEMBL document CHEMBL3588819, “Antiviral Limonoids Including Khayanolides from the Trang Mangrove Plant Xylocarpus moluccensis” (J Nat Prod, 2015).

These compounds were tested on Influenza A virus (assay: Antiviral activity against influenza A virus (A/Puerto Rico/8/34(H1N1)) infected in MDCK cells assessed as inhibition of virus-induced cytopathic effect incubated for 48 hrs by crystal violet staining based assay). Details: A/Puerto Rico/8/1934(H1N1).
Type: functional, organism-based

SMILES | IC50
COC(=O)C[C@@H]1[C@@]2(C)[C@H]3CC[C@]4(C)C(=C3[C@@]3(O)[C@@H](OC(C)=O)C(=O)[C@]1(C)C[C@@]23O)CC(=O)O[C@H]4c1ccoc1 | 77.1 µM
COC(=O)C[C@H]1[C@@]2(C)C[C@]3(O)[C@H](C(=O)[C@H]2OC(C)=O)C2=C4CC(=O)O[C@@H](c5ccoc5)[C@]4(C)CC[C@@H]2[C@]13C | 114 µM
COC(=O)C[C@H]1[C@@]2(C)C[C@]3(O)[C@H](C(=O)[C@H]2OC(C)=O)C2=C(CC[C@]4(C)C2=CC(=O)O[C@H]4c2ccoc2)[C@]13C | 122 µM
NC(=O)c1ncn([C@@H]2O[C@H](CO)[C@@H](O)[C@H]2O)n1 [RIBAVIRIN] | 186 µM
